One block for each compound: values may come before it.
Assays:
Type in all cases: physicochemical
[1] = Interfacial tension measurements, water/oil pendant drop test (CMC from interfacial tension-concentration graph)
Protocol: To test the amphiphilic properties of each molecule, we measured the water/oil interfacial tension using pendant drop test. In a typical test, we inject the organic solution with surfactants slowly into the water phase with a bent needle with 1 mm diameter. The interfacial tension is calculated by the force balance with the buoyancy force. The critical micelle concentration (CMC) can be obtained by checking the critical point of interfacial tension-concentration graph. […] The CMC of MAX10 and MAX8 are around 2.5 mg/mL.

[2] = quick emulsion test in ethyl acetate and water; conditions: non-miscible system of ethyl acetate and water, mixture neutralized until pH 7, FIG. 1a
Text: The mixture was neutralized until pH 7, and dissolved in a non-miscible system of ethyl acetate and water to do a quick emulsion test.

[3] = Emulsion stability measurements (water/cyclohexane emulsions, bright-field microscope); conditions: water/oil emulsion (67% water and 33% cyclohexane) containing 1% surfactant, FIG. 2
Protocol: The emulsions were prepared by mixing 1 ml of water (with 1 mg/ml of Acian blue dye) and 2 ml cyclohexane containing 3,5-O-dodecylidene-xylose or 2-((dodecyloxy)methyl) tetrahydrofuran-3,4-diol) at a concentration of 0.1% and then mixed by vortex for 30 s.
Emulsions were characterized using a bright-field microscope (Leitz Ergolux) during the storage after preparation. […] Besides, a water/oil emulsion (67% water and 33% cyclohexane) containing 1% 3,5-O-dodecylidene-xylose was kept for about 1 year to observe its possible destablization.

[4] = Accelerated aqueous decomposition test (boiling in water, HPLC); conditions: FIG. 16
Protocol: HPLC analyses for the accelerated aqueous decomposition of MAXn were performed using a HPX-87H Column (300 mm×7.8 mm; column temperature=60° C.) using pH 2 water as eluent (flow rate=0.6 ml·min^−1, Vinj=20 μL) with 1260 Refractive Index Detector (RID) (G1362A)
To gain insight into the degradation products of 1,2-O-dodecylidene-xylose (MAX12) in water, an accelerating aging test was performed by boiling it in water. Samples were taken at various time points and analyzed by HPLC (pH2 aqueous-phase chromatography, HPX-87H Column (300 mm×7.8 mm; 125-0140), 1260 Refractive Index Detector (RID) (G1362A), flow rate=0.6 ml·min^−1, Vinj=20 μL, column temperature=60° C.). […] And to our knowledge, fatty aldehydes can be oxidized into fatty acids catalyzed by the aldehyde dehydrogenase enzyme. Xylose and fatty acids are readily biodegradable.

[5] = water/oil interfacial tension, FIG. 7

Compound: CCCCCCCCO [1-octanol]
phase separation / formation of emulsion [2]: phase separated

Compound: CCCCCCCCCCCCOCC1OCC(O)C1O (centres unmarked) [2-((dodecyloxy)methyl)tetrahydrofuran-3,4-diol]
interfacial tension plateau value ([1]; cyclohexane/water): about 1.0 mN/m
critical micelle concentration (CMC) ([1]; cyclohexane/water, FIG. 8): around 0.5 g/L

Compound: 3,5-O-dodecylidene-xylose [MAX12]
state of emulsion after about 1 year storage [3]: most of the volume maintained the form of emulsion
critical micelle concentration (CMC) [1, 5]: 0.35 mg/mL
time to cleavage into xylose and fatty aldehyde [4]: 2 days

Results, then the compound that gave them:

critical micelle concentration (CMC) [1, 5]: around 2.5 mg/mL
Compound: 3,5-O-decylidene-xylose [MAX10]

critical micelle concentration (CMC) [1, 5]: around 2.5 mg/mL
Compound: 3,5-O-octylidene-xylose [MAX8]
